Like-named read-outs stand apart in the source and are kept apart here.
Tests used:
[1] = Evaluation of solubility of compound for solvent (30 mg in 0.7 mL, visually observed); assay type: physicochemical; conditions: organic solvent or mixture, thermodynamic from solid, room temperature, visual
Experimental: 30 mg of each of water-insoluble coloring matter compounds (1), (4), (6), (8) to (10), (14), (15), (20), and (21) and comparative compounds (1) to (3) was dissolved at room temperature in 0.7 mL of toluene, 0.7 mL of methanol, 0.7 mL of ethyl acetate, and 0.7 mL of chloroform, respectively. These solutions were visually observed, and the solubility of the compound for the solvent was evaluated.
A: completely dissolved (solubility is very good)
B: slightly suspended (solubility is good)
C: not dissolved at all (solubility is bad)

[2] = Solubility in water of the compound at room temperature and at 60° C.; assay type: physicochemical; conditions: mass percentage
From the text: The water-insoluble coloring matter compound represented by the formula (1) according to the present invention has high affinity for an organic solvent. In the present invention, “water-insoluble” means that solubility in water is less than 1% in terms of mass percentage.

[3] = 30 mg in 0.7 mL chloroform, read-out: Solubility Chloroform
[4] = 30 mg in 0.7 mL ethyl acetate, read-out: Solubility Ethyl acetate
[5] = 30 mg in 0.7 mL methanol, read-out: Solubility Methanol
[6] = 30 mg in 0.7 mL toluene, read-out: Solubility Toluene

SMILES | solubility [1, 3] [mg/mL] | solubility [1, 4] [mg/mL] | solubility [1, 5] [mg/mL] | solubility [1, 6] [mg/mL] | solubility in water ([2]; 60° C.) | solubility in water ([2]; room temperature)
Cn1c(=O)cc2c3c(c(Nc4ccccc4)ccc31)C(=O)c1ccccc1-2 [(1)] | < 42.9 | < 42.9 | < 42.9 | < 42.9 | – | –
Cc1ccc(Nc2ccc3c4c(cc(=O)n3C)-c3ccccc3C(=O)c24)cc1 [(2)] | < 42.9 | < 42.9 | < 42.9 | < 42.9 | – | –
CCCCn1c(=O)c(C(=O)c2ccccc2)c2c3c(c(Nc4ccc(C)cc4)ccc31)C(=O)c1ccccc1-2 [(3)] | < 42.9 | < 42.9 | < 42.9 | < 42.9 | – | –
CCCCC(CC)CNc1ccc2c3c1C(=O)c1ccccc1-c3c(C(C)=O)c(=O)n2CCCC (stereo not drawn) [Compound (1)] | – | – | – | – | less than 1% | less than 1%
CCCCC(CC)CNc1ccc2c3c1C(=O)c1ccccc1-c3c(C(=O)c1ccccc1)c(=O)n2CCCC (stereo not drawn) [Compound (4)] | – | – | – | – | less than 1% | less than 1%
CCCCC(CC)CNc1ccc2c3c1C(=O)c1ccccc1-c3c(C(=O)c1ccc(OC)cc1)c(=O)n2CCCC (stereo not drawn) [Compound (6)] | – | – | – | – | less than 1% | less than 1%
CCCCC(CC)CNc1ccc2c3c1C(=O)c1ccccc1-c3c(C(=O)c1ccccc1)c(=O)n2CC(CC)CCCC (stereo not drawn) [Compound (8)] | – | – | – | – | less than 1% | less than 1%
CCCCC(CC)CNc1ccc2c3c1C(=O)c1ccccc1-c3c(C(=O)OCC)c(=O)n2CC(CC)CCCC (stereo not drawn) [Compound (9)] | – | – | – | – | less than 1% | less than 1%
CCCCOCCCNc1ccc2c3c1C(=O)c1ccccc1-c3c(C(=O)c1ccccc1)c(=O)n2CC(CC)CCCC (stereo not drawn) [Compound (10)] | – | – | – | – | less than 1% | less than 1%
CCCCC(CC)CNc1ccc2c3c1C(=O)c1ccccc1-c3c(C(=O)c1ccccc1)c(=O)n2C (stereo not drawn) [Compound (14)] | – | – | – | – | less than 1% | less than 1%
CCCCC(CC)Cn1c(=O)c(C(=O)c2ccccc2)c2c3c(c(NC4CCCCC4)ccc31)C(=O)c1ccccc1-2 (stereo not drawn) [Compound (15)] | – | – | – | – | less than 1% | less than 1%
CCCCNc1ccc2c3c1C(=O)c1ccccc1-c3c(C(=O)c1ccccc1)c(=O)n2CCCC [Compound (21)] | – | – | – | – | less than 1% | less than 1%

— patent US8951340B2, “Water-insoluble coloring matter compound, ink using the water-insoluble coloring matter compound, thermal transfer recording sheet and resist composition for color filter” (Canon Kabushiki Kaisha, priority 2011, dated 2015)
